The test system of experiment [1] is Mus musculus. The experiment can be described thus: Analgesic activity in mice by tail-flick test after intracerebroventricular administration at a dose of 60 ug/mouse after time duration of 2 minutes; no of mice survived / total no of mice tested-2. The class given is functional. In general terms: Thermal pain tests record how soon the animal reacts.
Experiment [2] deals with Opioid receptor (Rattus norvegicus). The experiment can be described thus: Concentration required to inhibit the specific binding of tritiated ligand [3H]DADL to opiate receptor by 50%.
In experiment [3] the test system is Mus musculus. The experiment can be described thus: Analgesic activity in mice by tail-flick test after intracerebroventricular administration at a dose of 24.3 ug/mouse after time duration of 2 minutes; no of mice survived / total no of mice tested-12. The class given is functional.
Experiment [4] deals with Mus musculus. Briefly: Analgesic activity in mice by tail-flick test after intracerebroventricular administration at a dose of 40 ug/mouse after time duration of 8 minutes; no of mice survived / total no of mice tested-3. The class given is functional.
The subject of experiment [5] is Mus musculus. The experiment can be described thus: Analgesic activity in mice by tail-flick test after intracerebroventricular administration at a dose of 48 ug/mouse after time duration of 8 minutes; no of mice survived / total no of mice tested-3. The experiment is classed as functional.
Experiment [6] concerns Mus musculus. Briefly: Analgesic activity in mice by tail-flick test after intracerebroventricular administration at a dose of 48 ug/mouse after time duration of 4 minutes; no of mice survived / total no of mice tested-3. The experiment is classed as functional.
The target in experiment [7] is Opioid receptor (Rattus norvegicus). Briefly: Concentration required to inhibit the specific binding of tritiated ligand [3H]naloxone to opiate receptor by 50%.
In experiment [8] the test system is Mus musculus. Briefly: Analgesic activity in mice by tail-flick test after intracerebroventricular administration at a dose of 40 ug/mouse after time duration of 2 minutes; no of mice survived / total no of mice tested-2. The class given is functional.
Experiment [9] concerns Mus musculus. The experiment can be described thus: Analgesic activity in mice by tail-flick test after intracerebroventricular administration at a dose of 12.2 ug/mouse after time duration of 2 minutes; no of mice survived / total no of mice tested-12. The experiment is classed as functional.
In experiment [10] the test system is Mus musculus. Briefly: Analgesic activity in mice by tail-flick test after intracerebroventricular administration at a dose of 40 ug/mouse after time duration of 4 minutes; no of mice survived / total no of mice tested-3. The class given is functional.
For experiment [11], the system named is Mus musculus. The experiment can be described thus: Analgesic activity in mice by tail-flick test after intracerebroventricular administration at a dose of 60 ug/mouse after time duration of 8 minutes; no of mice survived / total no of mice tested-3. The experiment is classed as functional.
The subject of experiment [12] is Mus musculus. Briefly: Analgesic activity in mice by tail-flick test after intracerebroventricular administration at a dose of 48 ug/mouse after time duration of 2 minutes; no of mice survived / total no of mice tested-2. The experiment is classed as functional.
Experiment [13] deals with Mus musculus. The experiment can be described thus: Analgesic activity in mice by tail-flick test after intracerebroventricular administration at a dose of 60 ug/mouse after time duration of 4 minutes; no of mice survived / total no of mice tested-3. The class given is functional.
Experiment [14] has as its system Mus musculus. Briefly: Analgesic activity in mice by tail-flick test after intracerebroventricular administration at a dose of 240 ug/mouse after time duration of 2 minutes; no of mice survived / total no of mice tested-6. The class given is functional.

SMILES strings stand for the structures.

In the case of `CC(C)CC(NC(=O)C(Cc1ccccc1)NC(=O)CCC(=O)CCC(=O)C(N)Cc1ccc(O)cc1)C(=O)O` (centres undefined), the Analgesic response amounted to 1 in experiment [1]; 6 in experiment [3]; 0 in experiment [4]; 0 in experiment [5]; 1 in [6]; 1 in experiment [8]. For the same compound, the Analgesic response worked out at 2 in experiment [9]; 1 in experiment [10]; 0 in experiment [11]; 1 in experiment [12]; 1 in experiment [13]. Besides, the results for the IC50 in experiment [2] and in experiment [7] were 33 µM and 180 µM, respectively.
In the case of `CC(C)C[C@@H](NC(=O)[C@H](Cc1ccccc1)NC(=O)CNC(=O)[C@@H](C)NC(=O)[C@@H](N)Cc1ccc(O)cc1)C(=O)O` [DADLE], the Analgesic response in [14] is reported as 4.

As a reminder, the IC50 is the concentration at which inhibition is half-maximal. A lower IC50 goes with higher potency.

The values above are taken from ChEMBL document CHEMBL1122736, “Replacement of the peptide-backbone amides connecting Tyr-Gly and Gly-Gly in leucine-enkephalin with ketomethylene groups: synthesis and biological activity” (J Med Chem, 1984).
